In paper PMC11669914, “Identification and characterization of a novel chromosome-encoded aminoglycoside O-nucleotidyltransferase gene, ant(9)-Id, in Providencia sp. TYF-12 isolated from the marine fish intestine” (Frontiers in Microbiology, 2024):
In brackets after ≈: the same amount, converted by molar mass.

How the values were obtained:
[1] = tested on: T1, Enterococcus faecalis ATCC29212; test: microbe, parasite or virus in culture; set-up: CLSI agar dilution MIC, bacterial growth inhibition
T1 construct: ATCC 29212
Excerpt: (§1) In accordance with the standards of the Clinical and Laboratory Standards Institute (CLSI),^1 the agar dilution method was used to determine the minimum inhibitory concentration (MIC). E. coli ATCC 25922 served as a quality control for antibiotic susceptibility testing. The tested antimicrobial agents included spectinomycin, tobramycin, streptomycin, netilmicin, paromomycin and amikacin (Table 2).

[2] = tested on: T2, Escherichia coli ACTT25922; test: microbe, parasite or virus in culture; set-up: CLSI agar dilution MIC, bacterial growth inhibition
T2 construct: ATCC 25922
Excerpt: as §1

[3] = tested on: CN[C@@H]1[C@H](O)[C@H](NC)[C@H]2O[C@@]3(O)C(=O)C[C@@H](C)O[C@H]3O[C@@H]2[C@H]1O; test: purified protein; format: biochemical, Providencia rettgeri; conditions: 2 mM ATP, 10 mM MgCl2, 50 mM HEPES pH 7.5, 500 μM DTT, 37 °C

Row | Molecule | MIC [1] [µg/mL] | MIC [2] [µg/mL] | Km [3] [µM] | kcat [3] [s⁻¹] | kcat/Km [3] [M⁻¹ s⁻¹]
1 | CC(C)(O/N=C(\C(=O)N[C@@H]1C(=O)N2C(C(=O)[O-])=C(C[n+]3ccccc3)CS[C@H]12)c1csc(N)n1)C(=O)O [ceftazidime] | 128 (≈ 234 µM) | ≤ 1 |  |  | 
2 | O=C(N[C@H](CO)[C@H](O)c1ccc([N+](=O)[O-])cc1)C(Cl)Cl [chloramphenicol] | 4 (≈ 12.4 µM) | 4 (≈ 12.4 µM) |  |  | 
3 | C[C@H]1c2cccc(O)c2C(=O)C2=C(O)[C@]3(O)C(=O)C(C(N)=O)=C(O)[C@@H](N(C)C)[C@@H]3[C@@H](O)[C@@H]21 [doxycycline] | 4 (≈ 9 µM) | 1 (≈ 2.25 µM) |  |  | 
4 | CC(=O)c1c(C)[n+]([O-])c2ccccc2[n+]1[O-] [mequindox] | 64 (≈ 293 µM) | 8 (≈ 36.7 µM) |  |  | 
5 | CN[C@@H]1[C@H](O[C@H]2[C@H](O[C@H]3[C@H](O)[C@@H](O)[C@H](N=C(N)N)[C@@H](O)[C@@H]3N=C(N)N)O[C@@H](C)[C@]2(O)C=O)O[C@@H](CO)[C@H](O)[C@H]1O [streptomycin] | 128 (≈ 220 µM) | 8 (≈ 13.8 µM) |  |  | 
6 | CN(C)[C@@H]1C(O)=C(C(N)=O)C(=O)[C@@]2(O)C(O)=C3C(=O)c4c(O)cccc4[C@@](C)(O)[C@H]3C[C@@H]12 [tetracycline] | 8 (≈ 18 µM) | 1 (≈ 2.25 µM) |  |  | 
7 | C=C[C@]1(C)C[C@@H](OC(=O)CSCCN(CC)CC)[C@]2(C)[C@H](C)CC[C@]3(CCC(=O)[C@H]32)[C@@H](C)[C@@H]1O [tiamulin] | 64 (≈ 130 µM) | > 512 |  |  | 
8 | ANT(9)-Id (Providencia rettgeri) |  |  | 8.94 ± 2.50 | 232 ± 59.8 | 2.62e+07 ± 2.95e+06
